Results published in ChEMBL document CHEMBL1201862, “PubChem BioAssay data set” (2004).
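Tested at 5 concentrations; 48 h exposure; 96-well plates; endpoints linearly interpolated, else capped at highest concentration. Abbreviation: GI50, concentration required for 50% inhibition of growth.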 Activity calls are given as the source filed them. Rule as the data show it: active = GI50 up to about 1.1 µM and inactive = higher.

Legend:
Assay in all cases: NCI anticancer screen, dose series, 48 h
786-0 = system: 786-0
A498 = system: A498
A549 = system: A549
ACHN = system: ACHN
CAKI-1 = system: CAKI-1
CCRF-CEM = system: CCRF-CEM
COLO 205 = system: COLO 205
DLD-1 = system: DLD-1
DMS-114 = system: DMS-114
DMS-273 = system: DMS-273
EKVX = system: EKVX
HCC 2998 = system: HCC 2998
HCT-116 = system: HCT-116
HCT-15 = system: HCT-15
HL-60 = system: HL-60
HOP-18 = system: HOP-18
HOP-62 = system: HOP-62
HOP-92 = system: HOP-92
HT-29 = system: HT-29
IGROV-1 = system: IGROV-1
K562 = system: K562
KM-20L2 = system: KM-20L2
KM12 = system: KM12
LXFL 529 = system: LXFL 529
M14 = system: M14
M19-MEL = system: M19-MEL
MOLT-4 = system: MOLT-4
Malme-3M = system: Malme-3M
NCI-H226 = system: NCI-H226
NCI-H23 = system: NCI-H23
NCI-H460 = system: NCI-H460
NCI-H522 = system: NCI-H522
OVCAR-3 = system: OVCAR-3
OVCAR-4 = system: OVCAR-4
OVCAR-5 = system: OVCAR-5
OVCAR-8 = system: OVCAR-8
RPMI-8226 = system: RPMI-8226
SF-268 = system: SF-268
SF-295 = system: SF-295
SF-539 = system: SF-539
SK-MEL-28 = system: SK-MEL-28
SK-MEL-2 = system: SK-MEL-2
SK-MEL-5 = system: SK-MEL-5
SK-OV-3 = system: SK-OV-3
SN12C = system: SN12C
SNB-19 = system: SNB-19
SNB-75 = system: SNB-75
SNB-78 = system: SNB-78
SW-620 = system: SW-620
TK-10 = system: TK-10
U-251 = system: U-251
UACC-257 = system: UACC-257
UACC-62 = system: UACC-62
UO-31 = system: UO-31
XF498 = system: XF498
RXF 393 = system: RXF 393
SR = system: SR

Q: With `Cc1cc2nc3c(=O)n(C)c(=O)nc-3n(-c3ccc(Cl)cc3)c2cc1C` as the molecule, how does the GI50 (786-0) read?
A: 16.1 µM (inactive)

Q: What about the GI50 (A498) of the same molecule?
A: 31.1 µM (inactive)

Q: What about the GI50 (A549) of the same molecule?
A: 3.52 µM (inactive)

Q: And the GI50 (ACHN)?
A: 11.4 µM (inactive)

Q: And the GI50 (CAKI-1)?
A: 16.4 µM (inactive)

Q: What about the GI50 (CCRF-CEM) of the same molecule?
A: 13.6 µM (inactive)

Q: And the GI50 (COLO 205)?
A: 2.24 µM (inactive)

Q: And the GI50 (DLD-1)?
A: 14.5 µM (inactive)

Q: And the GI50 (DMS-114)?
A: 3.1 µM (inactive)

Q: And the GI50 (DMS-273)?
A: 5.62 µM (inactive)

Q: What about the GI50 (EKVX) of the same molecule?
A: 20.1 µM (inactive)

Q: And the GI50 (HCC 2998)?
A: 3.95 µM (inactive)

Q: What about the GI50 (HCT-116) of the same molecule?
A: 11.9 µM (inactive)

Q: What about the GI50 (HCT-15) of the same molecule?
A: 3.68 µM

Q: What about the GI50 (HL-60) of the same molecule?
A: 3.34 µM (inactive)

Q: What about the GI50 (HOP-18) of the same molecule?
A: 6.87 µM (inactive)

Q: What about the GI50 (HOP-62) of the same molecule?
A: 24.4 µM (inactive)

Q: And the GI50 (HOP-92)?
A: 13.9 µM (inactive)

Q: And the GI50 (HT-29)?
A: 3.51 µM (inactive)

Q: What about the GI50 (IGROV-1) of the same molecule?
A: 14.6 µM (inactive)

Q: What about the GI50 (K562) of the same molecule?
A: 12.8 µM (inactive)

Q: And the GI50 (KM-20L2)?
A: 3.62 µM (inactive)

Q: And the GI50 (KM12)?
A: 16 µM (inactive)

Q: What about the GI50 (LXFL 529) of the same molecule?
A: 14 µM (inactive)

Q: What about the GI50 (M14) of the same molecule?
A: 3.29 µM (inactive)

Q: And the GI50 (M19-MEL)?
A: 2.32 µM (inactive)

Q: What about the GI50 (MOLT-4) of the same molecule?
A: 11.2 µM (inactive)

Q: And the GI50 (Malme-3M)?
A: 10 µM (inactive)

Q: And the GI50 (NCI-H226)?
A: 13.1 µM (inactive)

Q: What about the GI50 (NCI-H23) of the same molecule?
A: 3.81 µM (inactive)

Q: What about the GI50 (NCI-H460) of the same molecule?
A: 3.3 µM (inactive)

Q: And the GI50 (NCI-H522)?
A: > 10 µM (inactive)

Q: And the GI50 (OVCAR-3)?
A: 2.57 µM (inactive)

Q: And the GI50 (OVCAR-4)?
A: 5.16 µM (inactive)

Q: And the GI50 (OVCAR-5)?
A: 18.5 µM (inactive)

Q: What about the GI50 (OVCAR-8) of the same molecule?
A: 13.1 µM (inactive)

Q: What about the GI50 (RPMI-8226) of the same molecule?
A: 6.37 µM (inactive)

Q: What about the GI50 (SF-268) of the same molecule?
A: 11.4 µM (inactive)

Q: And the GI50 (SF-295)?
A: 12.2 µM (inactive)

Q: What about the GI50 (SF-539) of the same molecule?
A: 11.2 µM (inactive)

Q: And the GI50 (SK-MEL-28)?
A: 15.2 µM (inactive)

Q: What about the GI50 (SK-MEL-2) of the same molecule?
A: 11.8 µM (inactive)

Q: And the GI50 (SK-MEL-5)?
A: 1.72 µM (inactive)

Q: And the GI50 (SK-OV-3)?
A: 25.6 µM (inactive)

Q: What about the GI50 (SN12C) of the same molecule?
A: 5.85 µM (inactive)

Q: What about the GI50 (SNB-19) of the same molecule?
A: 5.78 µM (inactive)

Q: What about the GI50 (SNB-75) of the same molecule?
A: 11.4 µM (inactive)

Q: What about the GI50 (SNB-78) of the same molecule?
A: 18.5 µM (inactive)

Q: What about the GI50 (SW-620) of the same molecule?
A: 4.2 µM (inactive)

Q: And the GI50 (TK-10)?
A: 31.9 µM (inactive)

Q: What about the GI50 (U-251) of the same molecule?
A: 9.66 µM (inactive)

Q: What about the GI50 (UACC-257) of the same molecule?
A: 6.75 µM (inactive)

Q: And the GI50 (UACC-62)?
A: 2.91 µM (inactive)

Q: And the GI50 (UO-31)?
A: 20 µM (inactive)

Q: And the GI50 (XF498)?
A: 1.29 µM (inactive)

Q: Which GI50 (786-0) does the source give for `CC1=C(C(=O)NCc2ccccc2)C(c2ccc(C3C(C(=O)NCc4ccccc4)=C(C)NC(C)=C3C(=O)NCc3ccccc3)cc2)C(C(=O)NCc2ccccc2)=C(C)N1` here?
A: 15.6 µM (inactive)

Q: What about the GI50 (A498) of the same molecule?
A: 17.7 µM (inactive)

Q: What about the GI50 (A549) of the same molecule?
A: 24.3 µM (inactive)

Q: What about the GI50 (ACHN) of the same molecule?
A: 15.6 µM (inactive)

Q: And the GI50 (CAKI-1)?
A: 14 µM (inactive)

Q: What about the GI50 (CCRF-CEM) of the same molecule?
A: 3.39 µM (inactive)

Q: And the GI50 (COLO 205)?
A: 7.57 µM (inactive)

Q: What about the GI50 (DLD-1) of the same molecule?
A: 3.44 µM (inactive)

Q: What about the GI50 (DMS-114) of the same molecule?
A: 12.6 µM (inactive)

Q: And the GI50 (DMS-273)?
A: 9.42 µM (inactive)

Q: What about the GI50 (EKVX) of the same molecule?
A: 14.9 µM (inactive)

Q: What about the GI50 (HCC 2998) of the same molecule?
A: 17.1 µM (inactive)

Q: And the GI50 (HCT-116)?
A: 3.02 µM (inactive)

Q: What about the GI50 (HCT-15) of the same molecule?
A: 16.1 µM

Q: What about the GI50 (HL-60) of the same molecule?
A: 6.27 µM (inactive)

Q: What about the GI50 (HOP-18) of the same molecule?
A: 37.5 µM (inactive)

Q: What about the GI50 (HOP-62) of the same molecule?
A: 23.2 µM (inactive)

Q: What about the GI50 (HOP-92) of the same molecule?
A: 17.8 µM (inactive)

Q: What about the GI50 (HT-29) of the same molecule?
A: 5.61 µM (inactive)

Q: And the GI50 (IGROV-1)?
A: 18 µM (inactive)

Q: And the GI50 (K562)?
A: 5.93 µM (inactive)

Q: And the GI50 (KM-20L2)?
A: 13.9 µM (inactive)

Q: And the GI50 (KM12)?
A: 11.4 µM (inactive)

Q: And the GI50 (LXFL 529)?
A: 4.58 µM (inactive)

Q: And the GI50 (M14)?
A: 11.8 µM (inactive)

Q: What about the GI50 (M19-MEL) of the same molecule?
A: 8.39 µM (inactive)

Q: And the GI50 (MOLT-4)?
A: 5.75 µM (inactive)

Q: And the GI50 (Malme-3M)?
A: 14.4 µM (inactive)

Q: And the GI50 (NCI-H226)?
A: 17.5 µM (inactive)

Q: And the GI50 (NCI-H23)?
A: 14.7 µM (inactive)

Q: What about the GI50 (NCI-H460) of the same molecule?
A: 28.6 µM (inactive)

Q: What about the GI50 (NCI-H522) of the same molecule?
A: 3.41 µM (inactive)

Q: And the GI50 (OVCAR-3)?
A: 10.4 µM (inactive)

Q: What about the GI50 (OVCAR-4) of the same molecule?
A: 15.2 µM (inactive)

Q: What about the GI50 (OVCAR-5) of the same molecule?
A: 23.7 µM (inactive)

Q: What about the GI50 (OVCAR-8) of the same molecule?
A: 7.03 µM (inactive)

Q: And the GI50 (RPMI-8226)?
A: 6.65 µM (inactive)

Q: And the GI50 (RXF 393)?
A: 16.6 µM (inactive)

Q: What about the GI50 (SF-268) of the same molecule?
A: 15.1 µM (inactive)

Q: What about the GI50 (SF-295) of the same molecule?
A: 17.9 µM (inactive)

Q: What about the GI50 (SF-539) of the same molecule?
A: 2.13 µM (inactive)

Q: And the GI50 (SK-MEL-28)?
A: 11.5 µM (inactive)

Q: And the GI50 (SK-MEL-2)?
A: 18.4 µM (inactive)

Q: And the GI50 (SK-MEL-5)?
A: 16.1 µM (inactive)

Q: And the GI50 (SN12C)?
A: 6.5 µM (inactive)

Q: And the GI50 (SNB-19)?
A: 15.6 µM (inactive)

Q: What about the GI50 (SNB-75) of the same molecule?
A: > 10 µM (inactive)

Q: What about the GI50 (SNB-78) of the same molecule?
A: 9.46 µM (inactive)

Q: And the GI50 (SR)?
A: 2.3 µM (inactive)

Q: What about the GI50 (SW-620) of the same molecule?
A: 10.2 µM (inactive)

Q: And the GI50 (TK-10)?
A: 20.7 µM (inactive)

Q: And the GI50 (U-251)?
A: 3.96 µM (inactive)

Q: And the GI50 (UACC-257)?
A: 15 µM (inactive)

Q: And the GI50 (UACC-62)?
A: 7.91 µM (inactive)

Q: And the GI50 (UO-31)?
A: 21.2 µM (inactive)

Q: What about the GI50 (XF498) of the same molecule?
A: 14.9 µM (inactive)
